Experimental data taken from US20250092033A1, “HETEROAROMATIC NITROGEN-OXIDE COMPOUND, PREPARATION METHOD THEREFOR, AND USE THEREOF” (BEIJING AVISTONE BIOTECHNOLOGY CO., LTD., priority 2021, published 2025).

Columns and labels:
[1] = target: T1, wild type (WT) MET kinase (Homo sapiens, UniProt P08581); test: Kinase inhibition experiment (HTRF KinEASE-TK kit), wild-type MET; assay type: biochemical; details: 10 concentrations, 3-fold dilution
T1 construct: purchased Carna 08-151
Experimental: (§1) The activity of the compounds was determined by detecting the residual amount of ATP after reacting with wild-type or mutant MET protein kinase by using an HTRF KinEASE-TK kit. […]
(§2) The compounds were determined on the selected kinase, the solvent control was set and a total of 10 concentrations were detected, diluted 3-fold, 2 replicates per concentration.
(§3) 1 volume of 5× kinase reaction buffer and 4 volumes of water; 5 mM MgCl2; 1 mM DTT; 1 mM MnCl2; or 2500 nm SEB.
(§4) 1) 10 nl or 4 μlof the diluted compound was transferred to each well of the reaction plate (784075 or 264706, Greiner or Thermo) with a pipette, the reaction plate was sealed with a sealing plate, and centrifuged at 1000 for 1 minute.
(§5) 2) 2× MET was prepared from 1× enzyme reaction buffer, 5 μl or 2 μl kinase was added to each well of the reaction plate, the reaction plate was sealed with a sealing plate, centrifuged at 1000 g for 30 seconds and incubated at room temperature for 10 min.
(§6) 3) a mixed solution of 2× TK-substrate-biotin and ATP were prepared from 1× enzyme reaction buffer solution, 5 μl or 2 μl TK-substrate-biotin/ATP of the mixed solution was added into a reaction plate, the reaction plate was sealed with a sealing plate, centrifuged at 1000 g for 30 seconds and reacted for 50 minutes or 10 minutes at room temperature.
(§7) 4) a mixed solution of 4× or 2× Sa-XL 665 and TK-antibody-Cryptate were prepared from HTRF detection buffer, 5 or 10 μl of the mixed solution of Sa-XL 665 and TK-antibody-Cryptate was added into each well, centrifuged at 1000 g for 30 seconds, and reacted at room temperature for 1 h.
(§8) 5) the fluorescence signals at 615 nm (cryptate) and 665 nm (XL665) were read with Envision 2104 or TECAN.
(§9) The data was analyzed using GraphPad Prism 6.0 or 7 software, and the dose-response curve was fitted with nonlinear S-curve regression, and the IC50 value was calculated therefrom.
(§10) Enzyme Inhibition Percent (%)=100-(Signalmpd-SignalAve_PC)/(SignalAve_VC-SignalAve_PC)×100

[2] = target: T2, MET D1228N (Homo sapiens, UniProt P08581, D1228N); test: Kinase inhibition experiment (HTRF KinEASE-TK kit), mutant MET D1228N; assay type: biochemical; details: 10 concentrations, 3-fold dilution
T2 construct: purchased Signalchem M52-12IG
Experimental: as §1, §2, §3, §4, §5, §6, §7, §8, §9, §10

[3] = target: T3, MET F1200I (Homo sapiens, UniProt P08581, F1200I); test: Kinase inhibition experiment (HTRF KinEASE-TK kit), mutant MET F1200I; assay type: biochemical; details: 10 concentrations, 3-fold dilution
T3 construct: purchased Signalchem M52-12GG/Y767-2
Experimental: as §1, §2, §3, §4, §5, §6, §7, §8, §9, §10

[4] = test system: Hs746T cell line; test: Cell proliferation inhibition experiment (CellTiter-Glo), Hs746T; assay type: cell-based; details: Homo sapiens, Hs 746T, CTG, 72 h
Experimental: (§11) CellTiter-Glo™ live cell detection kit adopts luciferase as the detection substance, and the luciferase needs the participation of ATP in the luminescence process. CellTiter-Glo™ reagent was added into the cell culture medium and the luminescence value was measured. The light signal is in direct proportion to the amount of ATP in the system, ATP is in direct correlation with number of living cells. Therefore, the proliferation of cells can be detected by detecting the content of ATP with CellTiter-Glo kit.
(§12) In the experiment, the proliferation inhibition effect of the prepared compounds on tumor cell lines Hs746T, EBC-1 and H1993 was measured by a celltiter-glo (CTG) method, and 50% inhibition concentration IC50 was calculated.
(§13) The compounds were determined on the selected cells, the solvent control was set and a total of 10 concentrations were detected, 2 replicates per concentration.
(§14) a) Cells in the logarithmic growth phase were harvested and counted by a […]. The cell viability was detected by a trypan blue exclusion method to ensure that the cell viability was over 90%.
(§15) b) The cell concentration was adjusted; 30 μL of cell suspension was added to a 384-well plate respectively.
(§16) c) Cells in a 384-well plate were incubated overnight at 37° C., 5% CO2 and 95% humidity.
(§17) a) 10 times of drug solution was prepared with the highest concentration of 10 mM, 10 concentrations and 3 times dilution, 10 μL of drug solution was added into each well of a 384-well plate inoculated with cells, and three multiple wells were arranged for each drug concentration. DMSO was the blank control.
(§18) b) The cells in the 384-well plate were incubated for a further 72 h at 37° C., 5% CO2 and 95% humidity before CTG analysis.
(§19) a) The CTG reagent was melted and the cell plate was equilibrated to room temperature for 30 min.
(§20) b) An equal volume of CTG solution was added to each well.
(§21) c) Cells were lysed by shaking on an orbital shaker for 5 minutes.
(§22) d) The cell plate was left at room temperature for 20 minutes to stabilize the luminescence signal.
(§23) e) The cold light value was read.
(§24) The data was analyzed by GraphPad Prism 8 software, and the dose-response curve was fitted with nonlinear S-curve regression, and the IC50 value was calculated therefrom.
(§25) Cell viability(%)=(Lumdrugs to be tested-Lumblank control)/(Lumcell control-Lumblank control)×100%.

[5] = test system: EBC-1 cell line; test: Cell proliferation inhibition experiment (CellTiter-Glo), EBC-1; assay type: cell-based; details: Homo sapiens, CTG, 72 h
Experimental: as §11, §12, §13, §14, §15, §16, §17, §18, §19, §20, §21, §22, §23, §24, §25

[6] = test system: H1993 cell line; test: Cell proliferation inhibition experiment (CellTiter-Glo), H1993; assay type: cell-based; details: Homo sapiens, NCI-H1993, CTG, 72 h
Experimental: as §11, §12, §13, §14, §15, §16, §17, §18, §19, §20, §21, §22, §23, §24, §25

T3 sequence (P08581 25-1390 F1200I): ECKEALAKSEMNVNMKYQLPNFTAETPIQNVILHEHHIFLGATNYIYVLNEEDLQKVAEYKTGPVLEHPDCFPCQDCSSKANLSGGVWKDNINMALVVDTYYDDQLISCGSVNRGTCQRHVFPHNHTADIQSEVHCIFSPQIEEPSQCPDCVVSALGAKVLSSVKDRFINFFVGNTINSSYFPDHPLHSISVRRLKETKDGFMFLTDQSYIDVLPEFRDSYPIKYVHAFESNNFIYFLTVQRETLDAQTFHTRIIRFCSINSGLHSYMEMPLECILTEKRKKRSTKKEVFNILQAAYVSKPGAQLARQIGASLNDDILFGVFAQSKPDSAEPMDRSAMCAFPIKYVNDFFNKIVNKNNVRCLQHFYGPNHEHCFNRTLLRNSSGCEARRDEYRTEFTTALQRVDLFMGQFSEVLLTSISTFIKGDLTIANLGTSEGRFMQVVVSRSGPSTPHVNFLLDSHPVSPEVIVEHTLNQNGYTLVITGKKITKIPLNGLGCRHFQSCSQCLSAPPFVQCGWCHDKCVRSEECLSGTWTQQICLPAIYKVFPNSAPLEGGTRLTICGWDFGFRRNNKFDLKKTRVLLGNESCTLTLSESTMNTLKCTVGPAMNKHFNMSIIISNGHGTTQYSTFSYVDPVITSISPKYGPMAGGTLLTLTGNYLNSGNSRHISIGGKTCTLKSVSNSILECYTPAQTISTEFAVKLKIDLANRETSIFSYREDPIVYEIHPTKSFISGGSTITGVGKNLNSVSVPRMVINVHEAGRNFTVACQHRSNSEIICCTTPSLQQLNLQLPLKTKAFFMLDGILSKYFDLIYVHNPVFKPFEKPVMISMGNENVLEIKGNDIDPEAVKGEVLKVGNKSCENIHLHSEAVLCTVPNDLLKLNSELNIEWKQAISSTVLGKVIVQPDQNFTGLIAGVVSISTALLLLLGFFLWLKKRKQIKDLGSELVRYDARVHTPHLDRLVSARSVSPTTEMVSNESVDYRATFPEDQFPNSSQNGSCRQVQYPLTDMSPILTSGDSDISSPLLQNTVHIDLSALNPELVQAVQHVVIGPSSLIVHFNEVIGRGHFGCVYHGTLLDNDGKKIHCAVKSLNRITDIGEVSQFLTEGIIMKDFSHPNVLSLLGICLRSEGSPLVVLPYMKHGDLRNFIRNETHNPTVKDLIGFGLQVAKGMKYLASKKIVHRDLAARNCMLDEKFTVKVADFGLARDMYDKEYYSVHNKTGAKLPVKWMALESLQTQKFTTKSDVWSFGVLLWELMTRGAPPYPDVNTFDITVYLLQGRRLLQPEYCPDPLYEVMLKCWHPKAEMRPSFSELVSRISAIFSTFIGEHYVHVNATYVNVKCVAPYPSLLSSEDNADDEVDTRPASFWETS
T2 sequence (P08581 25-1390 D1228N): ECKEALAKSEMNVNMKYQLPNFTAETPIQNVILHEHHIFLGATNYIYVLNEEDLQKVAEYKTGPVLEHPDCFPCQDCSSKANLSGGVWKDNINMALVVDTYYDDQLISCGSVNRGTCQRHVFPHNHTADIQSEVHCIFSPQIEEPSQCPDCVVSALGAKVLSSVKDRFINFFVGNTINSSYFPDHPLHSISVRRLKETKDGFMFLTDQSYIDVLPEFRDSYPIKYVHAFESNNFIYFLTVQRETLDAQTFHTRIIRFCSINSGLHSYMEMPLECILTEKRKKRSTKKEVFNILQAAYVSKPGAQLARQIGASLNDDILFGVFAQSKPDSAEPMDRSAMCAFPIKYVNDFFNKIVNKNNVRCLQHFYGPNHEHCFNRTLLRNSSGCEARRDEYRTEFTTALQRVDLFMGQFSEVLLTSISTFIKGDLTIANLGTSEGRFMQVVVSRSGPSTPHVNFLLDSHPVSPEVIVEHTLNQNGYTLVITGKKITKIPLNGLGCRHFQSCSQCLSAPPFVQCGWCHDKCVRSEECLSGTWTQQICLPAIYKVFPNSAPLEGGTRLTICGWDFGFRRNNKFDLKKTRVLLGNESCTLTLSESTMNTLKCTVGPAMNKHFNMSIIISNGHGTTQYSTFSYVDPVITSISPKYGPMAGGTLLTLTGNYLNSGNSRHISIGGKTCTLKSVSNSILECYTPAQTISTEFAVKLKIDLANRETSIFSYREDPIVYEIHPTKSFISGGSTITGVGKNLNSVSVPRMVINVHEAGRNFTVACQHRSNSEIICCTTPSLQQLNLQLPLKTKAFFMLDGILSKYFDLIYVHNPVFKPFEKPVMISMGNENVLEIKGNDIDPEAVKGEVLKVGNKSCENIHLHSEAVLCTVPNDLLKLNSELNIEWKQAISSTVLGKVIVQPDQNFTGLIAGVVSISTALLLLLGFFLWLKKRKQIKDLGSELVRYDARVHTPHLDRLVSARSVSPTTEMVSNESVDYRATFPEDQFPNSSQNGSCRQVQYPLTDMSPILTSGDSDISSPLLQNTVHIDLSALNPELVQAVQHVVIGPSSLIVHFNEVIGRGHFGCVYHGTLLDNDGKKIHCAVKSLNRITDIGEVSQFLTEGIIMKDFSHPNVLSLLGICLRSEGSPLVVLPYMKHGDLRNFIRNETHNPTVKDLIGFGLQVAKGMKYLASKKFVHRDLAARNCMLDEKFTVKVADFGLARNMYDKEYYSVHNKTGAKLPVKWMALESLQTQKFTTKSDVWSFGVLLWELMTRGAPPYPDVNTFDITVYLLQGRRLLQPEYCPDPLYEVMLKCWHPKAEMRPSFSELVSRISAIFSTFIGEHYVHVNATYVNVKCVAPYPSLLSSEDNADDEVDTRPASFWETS
T1 sequence (P08581 25-1390): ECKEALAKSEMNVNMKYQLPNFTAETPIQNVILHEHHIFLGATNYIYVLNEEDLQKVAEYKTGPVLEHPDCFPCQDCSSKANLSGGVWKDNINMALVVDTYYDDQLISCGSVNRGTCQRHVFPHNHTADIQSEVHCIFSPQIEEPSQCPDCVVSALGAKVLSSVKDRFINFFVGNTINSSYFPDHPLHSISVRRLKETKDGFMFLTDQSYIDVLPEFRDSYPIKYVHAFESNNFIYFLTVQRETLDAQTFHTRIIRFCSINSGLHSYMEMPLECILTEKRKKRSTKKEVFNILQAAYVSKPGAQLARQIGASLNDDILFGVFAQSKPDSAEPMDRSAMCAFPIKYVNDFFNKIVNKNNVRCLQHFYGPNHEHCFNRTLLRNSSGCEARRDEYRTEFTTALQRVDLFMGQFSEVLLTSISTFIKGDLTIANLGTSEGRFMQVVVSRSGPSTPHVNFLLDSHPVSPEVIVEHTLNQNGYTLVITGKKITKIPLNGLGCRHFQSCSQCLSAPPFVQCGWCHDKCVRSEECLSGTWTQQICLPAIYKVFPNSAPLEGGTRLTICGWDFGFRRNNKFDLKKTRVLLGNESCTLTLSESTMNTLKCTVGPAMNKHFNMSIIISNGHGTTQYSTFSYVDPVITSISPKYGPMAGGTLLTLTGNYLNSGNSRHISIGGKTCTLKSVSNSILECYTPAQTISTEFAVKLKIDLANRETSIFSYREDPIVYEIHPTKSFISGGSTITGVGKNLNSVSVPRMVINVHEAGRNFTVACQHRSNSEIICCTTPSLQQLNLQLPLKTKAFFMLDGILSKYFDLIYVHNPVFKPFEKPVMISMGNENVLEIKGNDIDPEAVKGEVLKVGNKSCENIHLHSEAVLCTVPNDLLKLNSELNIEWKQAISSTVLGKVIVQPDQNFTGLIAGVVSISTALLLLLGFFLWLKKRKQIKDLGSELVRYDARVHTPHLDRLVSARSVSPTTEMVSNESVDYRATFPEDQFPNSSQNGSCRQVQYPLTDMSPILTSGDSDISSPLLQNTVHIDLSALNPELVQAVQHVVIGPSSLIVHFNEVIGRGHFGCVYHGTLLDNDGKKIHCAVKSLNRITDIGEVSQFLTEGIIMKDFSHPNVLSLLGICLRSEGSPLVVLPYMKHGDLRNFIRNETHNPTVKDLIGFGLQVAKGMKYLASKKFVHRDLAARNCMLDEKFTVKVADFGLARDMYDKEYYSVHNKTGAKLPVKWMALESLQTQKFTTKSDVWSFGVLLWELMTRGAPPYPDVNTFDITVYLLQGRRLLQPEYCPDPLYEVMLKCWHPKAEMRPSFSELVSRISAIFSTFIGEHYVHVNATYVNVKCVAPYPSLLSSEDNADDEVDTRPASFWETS

Row | IC50 [1] | IC50 [2] | IC50 [3] | IC50 [6] | SMILES | IC50 [4] | IC50 [5]
1 | 0.9 nM | 18 nM | 3 nM | 31.8 nM | C[C@H](CO)Nc1n[nH]c2nccc(Oc3ccc(NC(=O)c4cccc(-c5ccc(F)cc5)[n+]4[O-])cc3F)c12 [Final Product 2, (R)-2-((3-fluoro-4-((3-((1-hydroxypropan-2-yl)amino)-1H-pyrazolo[3,4-b]pyridin-4-yl)oxy)phenyl)carbamoyl)-6-(4-fluorophenyl)pyridine 1-oxide] | 8.5 nM | 12.6 nM
2 | 2.2 nM | 15.7 nM | 10 nM | 54.9 nM | CCC(CO)Nc1n[nH]c2nccc(Oc3ccc(NC(=O)c4cccc(-c5ccc(F)cc5)[n+]4[O-])cc3F)c12 (stereo not shown) [Final product 4] | 12.6 nM | 14.4 nM
3 | 2.5 nM | 29.5 nM | 9.5 nM |  | O=C(Nc1ccc(Oc2ccnc3[nH]nc(NC4COCC4O)c23)c(F)c1)c1cccc(-c2ccc(F)cc2)[n+]1[O-] (stereo not shown) [Final product 24] | 14.5 nM | 20.1 nM
4 | 3 nM | 34.5 nM | 9.6 nM |  | O=C(Nc1ccc(Oc2ccnc3[nH]nc(N4CCC(CO)CC4)c23)c(F)c1)c1cccc(-c2ccc(F)cc2)[n+]1[O-] [Final product 28] | 14 nM | 17.1 nM
5 | 4 nM | 25.1 nM | 6.7 nM |  | O=C(Nc1ccc(Oc2ccnc3[nH]nc(N4CC5(CC(O)C5)C4)c23)c(F)c1)c1cccc(-c2ccc(F)cc2)[n+]1[O-] [Final product 36] | 9.9 nM | 15.1 nM
6 | 2.5 nM | 14.8 nM | 6.7 nM | 85.3 nM | C[C@H](CO)Nc1n[nH]c2nccc(Oc3ccc(NC(=O)c4cccc(-c5ccc(F)cc5F)[n+]4[O-])cc3F)c12 [Final product 44] | 15.2 nM | 21.3 nM
7 | 2 nM | 4.8 nM | 8.7 nM | 29 nM | C[C@H](CO)Nc1n[nH]c2nccc(Oc3ccc(NC(=O)c4ccc(F)c(-c5ccc(F)cc5)[n+]4[O-])cc3F)c12 [Final product 53] | 14.6 nM | 15.7 nM
8 | 1.6 nM | 28.5 nM | 2.8 nM | 59.5 nM | C[C@H](CO)Nc1n[nH]c2nccc(Oc3ccc(NC(=O)c4ccc(Cl)c(-c5ccc(F)cc5)[n+]4[O-])cc3F)c12 [Final product 57] | 11.4 nM | 19.6 nM
9 | 4.9 nM | 15.9 nM | 16.1 nM | 16.4 nM | CC[C@H](CO)Nc1n[nH]c2nccc(Oc3ccc(NC(=O)c4ccc(Cl)c(-c5ccc(F)cc5)[n+]4[O-])cc3F)c12 [Final product 58] | 12.8 nM | 13.2 nM
10 | 4.7 nM | 26.6 nM | 13.1 nM |  | O=C(Nc1ccc(Oc2ccnc3[nH]nc(N[C@@H]4CCC(O)C4)c23)c(F)c1)c1ccc(Cl)c(-c2ccc(F)cc2)[n+]1[O-] (stereo partly shown) [Final product 63] | 4.6 nM | 13.4 nM
11 | 4 nM | 12.3 nM | 16.3 nM | 19.1 nM | Cc1ccc(C(=O)Nc2ccc(Oc3ccnc4[nH]nc(N[C@H](C)CO)c34)c(F)c2)[n+]([O-])c1-c1ccc(F)cc1 [Final product 67] | 4.2 nM | 6.6 nM
12 | 3 nM | 25.4 nM | 12.3 nM | 68.4 nM | Cc1ccc(C(=O)Nc2ccc(Oc3ccnc4[nH]nc(NCC(O)CO)c34)c(F)c2)[n+]([O-])c1-c1ccc(F)cc1 (stereo not shown) [Final product 69] | 19.6 nM | 29.3 nM
13 | 1.5 nM | 9.8 nM | 2.3 nM | 26.8 nM | CCc1ccc(C(=O)Nc2ccc(Oc3ccnc4[nH]nc(N[C@H](C)CO)c34)c(F)c2)[n+]([O-])c1-c1ccc(F)cc1 [Final product 80] | 9.6 nM | 8.7 nM
14 | 3.7 nM | 10.5 nM | 2.3 nM | 29.6 nM | COc1ccc(C(=O)Nc2ccc(Oc3ccnc4[nH]nc(N[C@H](C)CO)c34)c(F)c2)[n+]([O-])c1-c1ccc(F)cc1 [Final product 85] | 9.4 nM | 10.4 nM
15 | 3.3 nM | 20.8 nM | 7 nM | 36.4 nM | C[C@H](CO)Nc1n[nH]c2nccc(Oc3ccc(NC(=O)c4cccc(-c5ccc(F)cc5)[n+]4[O-])cc3Cl)c12 [Final product 97] | 12.1 nM | 12.9 nM
16 | 0.9 nM | 17.8 nM | 0.9 nM | 57.2 nM | C[C@H](CO)Nc1n[nH]c2nccc(Oc3ccc(NC(=O)c4ccc(F)c(-c5ccc(F)cc5)[n+]4[O-])cc3Cl)c12 [Final product 117] | 7 nM | 17.2 nM
17 | 0.8 nM | 7.6 nM | 0.8 nM | 29.9 nM | Cc1ccc(C(=O)Nc2ccc(Oc3ccnc4[nH]nc(N[C@H](C)CO)c34)c(Cl)c2)[n+]([O-])c1-c1ccc(F)cc1 [Final product 124] | 21.9 nM | 14.9 nM
18 | 1.6 nM | 38.5 nM | 0.6 nM | 29.3 nM | COc1ccc(C(=O)Nc2ccc(Oc3ccnc4[nH]nc(N[C@H](C)CO)c34)c(Cl)c2)[n+]([O-])c1-c1ccc(F)cc1 [Final product 138] | 8.7 nM | 9.4 nM
19 | 3.8 nM | 13.9 nM | 9.2 nM |  | O=C(Nc1ccc(Oc2ncnc3ccn(CCCO)c23)c(F)c1)c1cccc(-c2ccc(F)cc2)[n+]1[O-] [Final product 168, 2-((3-fluoro-4-((5-(3-hydroxypropyl)-5H-pyrrolo[3,2-d]pyrimidin-4-yl)oxy)phenyl)carbamoyl)-6-(4-fluorophenyl)pyridine 1-oxide] | 65.4 nM | 56.7 nM
20 | 20.4 nM | 62 nM | 187 nM | 204 nM | O=C(Nc1ccc(Oc2ccnc3[nH]cc(-c4cccnc4)c23)c(F)c1)c1ccc(Cl)c(-c2ccc(F)cc2)[n+]1[O-] [Final product 185, reference compound] | 155 nM | 133 nM
